Reference: patent US9090605B2, “Substituted 5-,6- and 7-membered heterocycles, medicaments containing such compounds, and their use” (Vitae Pharmaceuticals, Inc., priority 2010, dated 2015)

Molecular target: 11β-HSD1 (Homo sapiens, UniProt P28845)
Assay: In vitro inhibition of 11β-HSD1, HTRF detection of cortisol generated by human liver microsomes (biological test example 1)
Type: biochemical
Parameters: detecting cortisol generated from cortisterone by human liver microsomes; from tissue; host or cells: human liver microsomes
Conditions: 1 hour at 37° C., cortisone 80 nM, NADPH 200 μM, read-out: IC50, inhibitory activity on 11β-HSD 1
Protocol: Briefly, compounds were incubated for 1 hour at 37° C. in Tris buffer (20 mM tris, 5 mM EDTA, pH 6.0) containing NADPH (200 μM) and cortisone (80 nM). Cortisol generated in the reaction was then detected with a competitive immunoassay, involving two HTRF conjugates: cortisol linked to XL665 and anti-cortisol antibody labeled with Europium cryptate. The incubation period for detection reaction was typically 2 hours. The amount of cortisol was determined by reading the time-resolved fluorescence of the wells (Ex 320/75 nm; Em 615/8.5 nm and 665/7.5 nm). The ratio of the two emission signals was then calculated (Em665*10000/Em615). […] Each assay also contained a calibration curve with cortisol to transform the fluorescent data into cortisol concentrations. Percent inhibition (% CTL) of each compound was determined relative to the carbenoxolone signal and IC50 curves were generated.

11β-HSD1, sequence (P28845 whole entry): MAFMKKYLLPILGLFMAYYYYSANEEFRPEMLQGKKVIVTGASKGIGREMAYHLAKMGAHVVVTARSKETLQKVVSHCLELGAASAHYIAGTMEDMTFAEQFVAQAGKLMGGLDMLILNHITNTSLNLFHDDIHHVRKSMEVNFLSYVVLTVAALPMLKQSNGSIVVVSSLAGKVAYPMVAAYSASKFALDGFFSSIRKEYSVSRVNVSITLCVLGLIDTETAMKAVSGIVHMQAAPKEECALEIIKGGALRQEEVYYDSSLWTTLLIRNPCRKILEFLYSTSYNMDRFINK

| Structure (SMILES) | IC50 [nM] |
| --- | --- |
| C[C@@H](c1ccc(-c2ccc(C3(C#N)CC3)nc2)cc1)N1CC[C@](CC(C)(C)O)(c2ccccc2)OC1=O [Example 2, 1-[5-(4-{(S)-1-[(S)-6-(2-Hydroxy-2-methyl-propyl)-2-oxo-6-phenyl-[1,3]oxazinan-3-yl]-ethyl}-phenyl)-pyridin-2-yl]-cyclopropanecarbonitrile] | 68 |
| C[C@@H](c1ccc(-c2ccc(C3(C(N)=O)CC3)nc2)cc1)N1CC[C@](CC(C)(C)O)(c2ccccc2)OC1=O [Example 3, 1-[5-(4-{(S)-1-[(S)-6-(2-Hydroxy-2-methyl-propyl)-2-oxo-6-phenyl-[1,3]oxazinan-3-yl]-ethyl}-phenyl)-pyridin-2-yl]-cyclopropanecarboxylic acid amide] | 39 |
| CNC(=O)C1(c2ccc(-c3ccc([C@H](C)N4CC[C@](CC(C)(C)O)(c5ccccc5)OC4=O)cc3)cn2)CC1 [Example 5, 1-[5-(4-{(S)-1-[(S)-6-(2-Hydroxy-2-methyl-propyl)-2-oxo-6-phenyl-[1,3]oxazinan-3-yl]-ethyl}-phenyl)-pyridin-2-yl]-cyclopropanecarboxylic acid methylamide] | 31 |
| C[C@@H](c1ccc(-c2ccc(C3(C(=O)N(C)C)CC3)nc2)cc1)N1CC[C@](CC(C)(C)O)(c2ccccc2)OC1=O [Example 6, 1-[5-(4-{(S)-1-[(S)-6-(2-Hydroxy-2-methyl-propyl)-2-oxo-6-phenyl-[1,3]oxazinan-3-yl]-ethyl}-phenyl)-pyridin-2-yl]-cyclopropanecarboxylic acid dimethylamide] | 21 |
| CCOC(=O)C1(c2ccc(-c3ccc([C@H](C)N4CC[C@](CC(C)(C)O)(c5ccccc5)OC4=O)cc3)nn2)CC1 [Example 7, 1-[6-(4-{(S)-1-[(S)-6-(2-Hydroxy-2-methyl-propyl)-2-oxo-6-phenyl-[1,3]oxazinan-3-yl]-ethyl}-phenyl)-pyridazin-3-yl]-cyclopropanecarboxylic acid ethyl ester] | 41 |
| C[C@@H](c1ccc(-c2ccc(C3(C(N)=O)CC3)nn2)cc1)N1CC[C@](CC(C)(C)O)(c2ccccc2)OC1=O [Example 9, 1-[6-(4-{(S)-1-[(S)-6-(2-Hydroxy-2-methyl-propyl)-2-oxo-6-phenyl-[1,3]oxazinan-3-yl]-ethyl}-phenyl)-pyridazin-3-yl]-cyclopropanecarboxylic acid amide] | 68 |
| C[C@@H](c1ccc(-c2ccn([C@H]3CCOC3)c(=O)c2)cc1)N1CC[C@](CC(C)(C)O)(c2ccccc2)OC1=O [Example 13, (S)-6-(2-Hydroxy-2-methyl-propyl)-3-((S)-1-{4-[2-oxo-1-((S)-tetrahydro-furan-3-yl)-1,2-dihydro-pyridin-4-yl]-phenyl}-ethyl)-6-phenyl-[1,3]oxazinan-2-one] | 46 |
| C[C@@H](c1ccc(-c2cnn(C3CCOCC3)c2)cc1)N1CC[C@](CC(C)(C)O)(c2ccccc2)OC1=O [Example 14, (S)-6-(2-Hydroxy-2-methyl-propyl)-6-phenyl-3-((S)-1-{4-[1-(tetrahydro-pyran-4-yl)-1H-pyrazol-4-yl]-phenyl}-ethyl)-[1,3]oxazinan-2-one] | 48 |
| C[C@@H](c1ccc(-c2cnn([C@@H]3CCOC3)c2)cc1)N1CC[C@](CC(C)(C)O)(c2ccccc2)OC1=O [Example 15, (S)-6-(2-Hydroxy-2-methyl-propyl)-6-phenyl-3-((S)-1-{4-[1-((R)-tetrahydro-furan-3-yl)-1H-pyrazol-4-yl]-phenyl}-ethyl)-[1,3]oxazinan-2-one] | 27 |
| C[C@@H](c1ccc(-c2cnn([C@H]3CCOC3)c2)cc1)N1CC[C@](CC(C)(C)O)(c2ccccc2)OC1=O [Example 16, (S)-6-(2-Hydroxy-2-methyl-propyl)-6-phenyl-3-((S)-1-{4-[1-((S)-tetrahydro-furan-3-yl)-1H-pyrazol-4-yl]-phenyl}-ethyl)-[1,3]oxazinan-2-one] | 29 |
| C[C@@H](c1ccc(-c2ccc(C3(C#N)CC3)cn2)cc1)N1CC[C@](CC(C)(C)O)(c2ccccc2)OC1=O [Example 17, 1-[6-(4-{(S)-1-[(S)-6-(2-Hydroxy-2-methyl-propyl)-2-oxo-6-phenyl-[1,3]oxazinan-3-yl]-ethyl}-phenyl)-pyridin-3-yl]-cyclopropanecarbonitrile] | 81 |
| C[C@@H](c1ccc(-c2cccc(C3(S(C)(=O)=O)CC3)n2)cc1)N1CC[C@](CC(C)(C)O)(c2ccccc2)OC1=O [Example 20, (S)-6-(2-Hydroxy-2-methyl-propyl)-3-((S)-1-{4-[6-(1-methanesulfonyl-cyclopropyl)-pyridin-2-yl]-phenyl}-ethyl)-6-phenyl-[1,3]oxazinan-2-one] | 73 |
| C[C@@H](c1ccc(-c2ccnc(C3(S(C)(=O)=O)CC3)c2)cc1)N1CC[C@](CC(C)(C)O)(c2ccccc2)OC1=O [Example 21, (S)-6-(2-Hydroxy-2-methyl-propyl)-3-((S)-1-{4-[2-(1-methanesulfonyl-cyclopropyl)-pyridin-4-yl]-phenyl}-ethyl)-6-phenyl-[1,3]oxazinan-2-one] | 52 |
| C[C@@H](c1ccc(-c2cccc(C3(C(N)=O)CC3)n2)cc1)N1CC[C@](CC(C)(C)O)(c2ccccc2)OC1=O [Example 22, 1-[6-(4-{(S)-1-[(S)-6-(2-Hydroxy-2-methyl-propyl)-2-oxo-6-phenyl-[1,3]oxazinan-3-yl]-ethyl}-phenyl)-pyridin-2-yl]-cyclopropanecarboxylic acid amide] | 86 |
| CNC(=O)C1(c2cccc(-c3ccc([C@H](C)N4CC[C@](CC(C)(C)O)(c5ccccc5)OC4=O)cc3)n2)CC1 [Example 23, 1-[6-(4-{(S)-1-[(S)-6-(2-Hydroxy-2-methyl-propyl)-2-oxo-6-phenyl-[1,3]oxazinan-3-yl]-ethyl}-phenyl)-pyridin-2-yl]-cyclopropanecarboxylic acid methylamide] | 115 |
| C[C@@H](c1ccc(-c2cccc(C3(C(=O)N(C)C)CC3)n2)cc1)N1CC[C@](CC(C)(C)O)(c2ccccc2)OC1=O [Example 24, 1-[6-(4-{(S)-1-[(S)-6-(2-Hydroxy-2-methyl-propyl)-2-oxo-6-phenyl-[1,3]oxazinan-3-yl]-ethyl}-phenyl)-pyridin-2-yl]-cyclopropanecarboxylic acid dimethylamide] | 53 |
| C[C@@H](c1ccc(-c2ccc(C3(S(C)(=O)=O)CC3)cn2)cc1)N1CC[C@](CC(C)(C)O)(c2ccccc2)OC1=O [Example 25, (S)-6-(2-Hydroxy-2-methyl-propyl)-3-((S)-1-{4-[5-(1-methanesulfonyl-cyclopropyl)-pyridin-2-yl]-phenyl}-ethyl)-6-phenyl-[1,3]oxazinan-2-one] | 84 |

Further compounds by falling IC50, results first:

| IC50 [nM] | Structure (SMILES) |
| --- | --- |
| 182 | C[C@@H](c1ccc(-c2ccc(C3(C(=O)O)CC3)nn2)cc1)N1CC[C@](CC(C)(C)O)(c2ccccc2)OC1=O [Example 8, 1-[6-(4-{(S)-1-[(S)-6-(2-Hydroxy-2-methyl-propyl)-2-oxo-6-phenyl-[1,3]oxazinan-3-yl]-ethyl}-phenyl)-pyridazin-3-yl]-cyclopropanecarboxylic acid] |
| 94 | C[C@@H](c1ccc(-c2ccc(C3(C(=O)N(C)C)CC3)nn2)cc1)N1CC[C@](CC(C)(C)O)(c2ccccc2)OC1=O [Example 11, 1-[6-(4-{(S)-1-[(S)-6-(2-Hydroxy-2-methyl-propyl)-2-oxo-6-phenyl-[1,3]oxazinan-3-yl]-ethyl}-phenyl)-pyridazin-3-yl]-cyclopropanecarboxylic acid dimethylamide] |
| 92 | C[C@@H](c1ccc(-c2ccn([C@@H]3CCOC3)c(=O)c2)cc1)N1CC[C@](CC(C)(C)O)(c2ccccc2)OC1=O [Example 12, (S)-6-(2-Hydroxy-2-methyl-propyl)-3-((S)-1-{4-[2-oxo-1-((R)-tetrahydro-furan-3-yl)-1,2-dihydro-pyridin-4-yl]-phenyl}-ethyl)-6-phenyl-[1,3]oxazinan-2-one] |
| 64 | C[C@@H](c1ccc(-c2ccc(C3(S(C)(=O)=O)CC3)nc2)cc1)N1CC[C@](CC(C)(C)O)(c2ccccc2)OC1=O [Example 18, (S)-6-(2-Hydroxy-2-methyl-propyl)-3-((S)-1-{4-[6-(1-methanesulfonyl-cyclopropyl)-pyridin-3-yl]-phenyl}-ethyl)-6-phenyl-[1,3]oxazinan-2-one] |
| 61 | CNC(=O)C1(c2ccc(-c3ccc([C@H](C)N4CC[C@](CC(C)(C)O)(c5ccccc5)OC4=O)cc3)nn2)CC1 [Example 10, 1-[6-(4-{(S)-1-[(S)-6-(2-Hydroxy-2-methyl-propyl)-2-oxo-6-phenyl-[1,3]oxazinan-3-yl]-ethyl}-phenyl)-pyridazin-3-yl]-cyclopropanecarboxylic acid methylamide] |
| 56 | C[C@@H](c1ccc(-c2ccc(C3(O)COC3)cc2)cc1)N1CC[C@](CC(C)(C)O)(c2ccccc2)OC1=O [Example 1, (S)-6-(2-Hydroxy-2-methyl-propyl)-3-{(S)-1-[4′-(3-hydroxy-oxetan-3-yl)-biphenyl-4-yl]-ethyl}-6-phenyl-[1,3]oxazinan-2-one] |
| 53 | C[C@@H](c1ccc(-c2ccc(C3(C#N)CC3)nn2)cc1)N1CC[C@](CC(C)(C)O)(c2ccccc2)OC1=O [Example 4, 1-[6-(4-{(S)-1-[(S)-6-(2-Hydroxy-2-methyl-propyl)-2-oxo-6-phenyl-[1,3]oxazinan-3-yl]-ethyl}-phenyl)-pyridazin-3-yl]-cyclopropanecarbonitrile] |
| 35 | C[C@@H](c1ccc(-c2ccc(C3(C(N)=O)CC3)cn2)cc1)N1CC[C@](CC(C)(C)O)(c2ccccc2)OC1=O [Example 19, 1-[6-(4-{(S)-1-[(S)-6-(2-Hydroxy-2-methyl-propyl)-2-oxo-6-phenyl-[1,3]oxazinan-3-yl]-ethyl}-phenyl)-pyridin-3-yl]-cyclopropanecarboxylic acid amide] |
